# Experimental data from US7560458B2, “Triazolopyrimidine derivatives as glycogen synthase kinase 3 inhibitors” (Janssen Pharmaceutica, N.V., priority 2003, dated 2009).
# Tests used:
# GSK3alpha = GSK3alpha (Homo sapiens, UniProt P49840); assay: GSK3alpha assay (same as the GSK3beta assay, GSK3alpha 0.25 ng/μl); format: biochemical; details: −log IC50 (M); given as ranges (>8; 7-8; <7); read-out: pIC50 (GSK3alpha) (converted)
# In short: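 GSK3α at 0.25 ng/μl phosphorylated 5 μM biotinylated phospho-CREB peptide with 1 μM ATP and 33P-ATP for 1 h at room temperature, in 25 mM Tris pH 7.4 with 10 mM MgCl2 and 1 mM DTT. Phosphorylated peptide was captured on streptavidin SPA beads and counted. IC50 was taken from dose-response curves.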
# GSK3β = GSK3β (Homo sapiens, UniProt P49841); assay: GSK3beta assay (SPA, biotinylated phosphorylated CREB peptide, ATP-P33); format: biochemical; details: −log IC50 (M); given as ranges (>8; 7-8; <7); read-out: pIC50 (GSK3beta) (converted)
# Chain of GSK3β (P49841 whole entry, species assumed): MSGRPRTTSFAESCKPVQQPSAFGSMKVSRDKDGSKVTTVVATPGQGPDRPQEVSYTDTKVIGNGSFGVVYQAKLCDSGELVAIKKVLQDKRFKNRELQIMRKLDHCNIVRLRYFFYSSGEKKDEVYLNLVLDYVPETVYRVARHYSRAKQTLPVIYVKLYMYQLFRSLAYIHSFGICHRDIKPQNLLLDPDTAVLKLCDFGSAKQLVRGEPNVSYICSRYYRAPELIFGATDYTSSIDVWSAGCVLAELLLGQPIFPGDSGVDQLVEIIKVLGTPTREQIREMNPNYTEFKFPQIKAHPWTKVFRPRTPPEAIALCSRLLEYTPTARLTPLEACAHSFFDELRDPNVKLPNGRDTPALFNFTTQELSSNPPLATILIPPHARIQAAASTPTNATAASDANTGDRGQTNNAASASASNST
# In short: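 Radiometric SPA at room temperature, pH 7.4 Tris/MgCl2/DTT/BSA/glycerol, with 5.7 ng/μl GSK3β, 5 μM biotinylated phospho-CREB peptide, 1 μM ATP plus 33P-ATP for 1 h. Stopped with streptavidin SPA beads, counted after overnight settling; % inhibition versus no-compound control, IC50 from dose-response curve.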
# Chain of GSK3alpha (P49840 whole entry, species assumed): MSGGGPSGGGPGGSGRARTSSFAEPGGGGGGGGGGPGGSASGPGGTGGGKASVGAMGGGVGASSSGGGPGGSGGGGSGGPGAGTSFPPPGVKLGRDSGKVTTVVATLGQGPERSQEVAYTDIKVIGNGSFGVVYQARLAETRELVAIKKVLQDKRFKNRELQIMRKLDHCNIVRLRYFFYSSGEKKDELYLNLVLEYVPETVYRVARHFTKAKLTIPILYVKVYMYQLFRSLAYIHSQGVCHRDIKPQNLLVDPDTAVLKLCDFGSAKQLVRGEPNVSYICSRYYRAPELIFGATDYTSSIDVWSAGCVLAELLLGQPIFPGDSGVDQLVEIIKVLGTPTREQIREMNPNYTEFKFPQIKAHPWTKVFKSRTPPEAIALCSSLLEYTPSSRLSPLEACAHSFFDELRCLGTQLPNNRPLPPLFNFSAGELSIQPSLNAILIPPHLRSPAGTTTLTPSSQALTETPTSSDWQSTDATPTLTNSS
IC50 (GSK3alpha),melting point,IC50 (GSK3β),Compound
< 1e-08 M,177 °C,< 1e-08 M,NS(=O)(=O)c1cccc(Nc2ncc3nnn(-c4cccc(F)c4)c3n2)c1 [Compound 1]
< 1e-08 M,220 to 224 °C,< 1e-08 M,CC(=O)c1cccc(Nc2ncc3nnn(-c4cccc(F)c4)c3n2)c1 [Compound 2]
< 1e-08 M,> 260 °C,< 1e-08 M,N#Cc1ccc(Nc2ncc3nnn(-c4cccc(F)c4)c3n2)cc1Cl [Compound 3]
< 1e-08 M,228 to 232 °C,< 1e-08 M,COc1cc(OC)cc(-n2nnc3cnc(Nc4cccc(C#N)c4)nc32)c1 [Compound 6]
< 1e-08 M,212 to 213 °C,< 1e-08 M,Fc1cccc(-n2nnc3cnc(Nc4cccc(Br)c4)nc32)c1 [Compound 7]
< 1e-08 M,228 to 230 °C,< 1e-08 M,N#Cc1cccc(Nc2ncc3nnn(-c4cccc(F)c4)c3n2)c1 [Compound 8]
< 1e-08 M,214 to 218.1 °C,< 1e-08 M,CCOC(=O)/C=C/c1cccc(Nc2ncc3nnn(-c4cccc(F)c4)c3n2)c1 [Compound 9]
< 1e-08 M,> 250 °C,< 1e-08 M,O=C(O)/C=C/c1cccc(Nc2ncc3nnn(-c4cccc(F)c4)c3n2)c1 [Compound 10]
< 1e-08 M,150 to 154 °C,< 1e-08 M,CC(O)c1cccc(Nc2ncc3nnn(-c4cccc(F)c4)c3n2)c1 (stereo not drawn) [Compound 27]
< 1e-08 M,142 to 146 °C,< 1e-08 M,CC(C)Oc1cccc(Nc2ncc3nnn(-c4cccc(F)c4)c3n2)c1 [Compound 28]
< 1e-08 M,228 to 231 °C,< 1e-08 M,COc1cccc(-n2nnc3cnc(Nc4cccc(C#N)c4)nc32)c1 [Compound 55]
< 1e-08 M,> 250 °C,< 1e-08 M,NS(=O)(=O)c1cccc(Nc2ncc3nnn(-c4cccc(-c5cnco5)c4)c3n2)c1 [Compound 57]
1e-08 M,158 to 162 °C,< 1e-08 M,C=CCN(c1cccc(Nc2ncc3nnn(-c4cccc(CO)c4)c3n2)c1)S(C)(=O)=O [Compound 69]
< 1e-08 M,142 to 146 °C,< 1e-08 M,COCc1cccc(-n2nnc3cnc(Nc4cccc([S+](C)[O-])c4)nc32)c1 (stereo not drawn) [Compound 148]
< 1e-08 M,168 to 172 °C,< 1e-08 M,C[S+]([O-])c1cccc(Nc2ncc3nnn(-c4cccc(F)c4)c3n2)c1 (stereo not drawn) [Compound 152]
< 1e-08 M,148 °C,< 1e-08 M,COCCOCc1cccc(-n2nnc3cnc(Nc4ccc(F)cc4)nc32)c1 [Compound 287]
1e-08 to 1e-07 M,137 °C,1e-08 to 1e-07 M,CN(C)CCCOc1ccc(Nc2ncc3nnn(-c4cccc(F)c4)c3n2)cc1 [Compound 297]
< 1e-08 M,232 °C,< 1e-08 M,COc1cc(Nc2ncc3nnn(-c4cccc(F)c4)c3n2)ccc1C(=O)O [Compound 298]
